Assays:
Assay type in all cases: cell-based
MM1S cells = assay: MTT cell proliferation assay, MM1S cells; details: Homo sapiens, MM1.S, MM1S multiple myeloma cells, approximately 64-72 hours, 1 nM to 30 μM
Protocol: (§1) The MTT cell proliferation assay was used to study the cytotoxic properties of the compounds. The assay was performed according to the method described by Roche Molecular Biochemicals, with minor modifications. The assay is based on the cleavage of the tetrazolium salt, MTT, in the presence of an electron-coupling reagent. The water-insoluble formazan salt produced must be solubilized in an additional step. Cells grown in a 96-well tissue culture plate were incubated with the MTT solution for approximately 4 hours. After this incubation period, a water-insoluble formazan dye formed. After solubilization, the formazan dye was quantitated using a scanning multi-well spectrophotometer (ELISA reader). […] The cells were seeded at 5,000-10,000 cells in each well of 96-well plate in 100 μL of fresh culture medium and were allowed to attach overnight. The stock solutions of the compounds were diluted in 100 μL cell culture medium to obtain eight concentrations of each test compound, ranging from 1 nM to 30 μM. […] All optical densities were measured at 490 nm using a Vmax Kinetic Microplate Reader (Molecular Devices). In most cases, the assay was performed in duplicate and the results were presented as a mean percent inhibition to the negative control±SE. The following formula was used to calculate the percent of inhibition: Inhibition (%)=(1−(ODo/OD))×100.
(§2) The compounds were tested against Z138, MM1S and 3T3 cells. The Z138 cell line is a mature B-cell acute lymphoblastic leukemia cell line derived from a patient with chronic lymphocytic leukemia. The MM1S cell line was established from the peripheral blood of a human multiple myeloma patient. 3T3 cells are standard fibroblast cells; they were originally isolated from Swiss mouse embryo tissue.

3T3 cells = assay: MTT cell proliferation assay, 3T3 cells; details: Mus musculus, NIH3T3, 3T3 fibroblast cells, approximately 64-72 hours, 1 nM to 30 μM
Protocol: as §1, §2

Z138 cells = assay: MTT cell proliferation assay, Z138 cells; details: Homo sapiens, Z-138, approximately 64-72 hours, 1 nM to 30 μM
Protocol: as §1, §2

| Compound | IC50 (MM1S cells) [µM] | IC50 (3T3 cells) [µM] | IC50 (Z138 cells) [µM] |
| --- | --- | --- | --- |
| O=C(O)/C(=C/c1nccc(-c2cc(C(F)(F)F)cc(C(F)(F)F)c2)n1)c1cncnc1 [Compound 109, (E)-3-(4-(3,5-bis(trifluoromethyl)phenyl)pyrimidin-2-yl)-2-(pyrimidin-5-yl)acrylic acid] | > 30 | > 30 | > 30 |
| NC(=O)/C(=C/c1ccnc(-c2cc(C(F)(F)F)cc(C(F)(F)F)c2)n1)c1ccccc1 [Compound 120, (E)-3-(2-(3,5-bis(trifluoromethyl)phenyl)pyrimidin-4-yl)-2-phenylacrylamide] | > 30 | > 30 | > 30 |
| NC(=O)/C(=C/c1ccnc(-c2cc(C(F)(F)F)cc(C(F)(F)F)c2)n1)c1ccsc1Cl [Compound 143, (E)-3-(2-(3,5-bis(trifluoromethyl)phenyl)pyrimidin-4-yl)-2-(2-chlorothiophen-3-yl)acrylamide] | > 30 | > 30 | > 30 |
| NC(=O)/C(=C/c1ccnc(-c2cc(C(F)(F)F)cc(C(F)(F)F)c2)n1)c1cccc(S(=O)(=O)N2CCC(C(F)(F)F)CC2)c1 [Compound 160, (E)-3-(2-(3,5-bis(trifluoromethyl)phenyl)pyrimidin-4-yl)-2-(3-((4-(trifluoromethyl)piperidin-1-yl)sulfonyl)phenyl)acrylamide] | > 30 | > 30 | > 30 |
| NC(=O)/C(=C/c1ccnc(-c2cc(C(F)(F)F)cc(C(F)(F)F)c2)n1)c1cccc(S(=O)(=O)N2CCOCC2)c1 [Compound 129, (E)-3-(2-(3,5-bis(trifluoromethyl)phenyl)pyrimidin-4-yl)-2-(3-(morpholinosulfonyl)phenyl)acrylamide] | > 30 | > 30 | > 30 |
| NC(=O)/C(=C/c1ccnc(-c2cc(C(F)(F)F)cc(C(F)(F)F)c2)n1)c1ccc(-c2cccnc2)cc1 [Compound 142, (E)-3-(2-(3,5-bis(trifluoromethyl)phenyl)pyrimidin-4-yl)-2-(4-(pyridin-3-yl)phenyl)acrylamide] | > 30 | > 30 | > 30 |
| CCOC(=O)/C=C/c1ccnc(-c2cc(C(F)(F)F)cc(C(F)(F)F)c2)n1 [Compound 105, ethyl (E)-3-(2-(3,5-bis(trifluoromethyl)phenyl)pyrimidin-4-yl)acrylate] | > 30 | > 30 | > 30 |
| O=C(O)/C(=C/c1ccnc(-c2cc(C(F)(F)F)cc(C(F)(F)F)c2)n1)c1cncnc1 [Compound 111, (E)-3-(2-(3,5-bis(trifluoromethyl)phenyl)pyrimidin-4-yl)-2-(pyrimidin-5-yl)acrylic acid] | 5 to 30 | > 30 | > 30 |
| Cc1ccc(/C(=C\c2ccnc(-c3cc(C(F)(F)F)cc(C(F)(F)F)c3)n2)C(N)=O)cc1F [Compound 118, (E)-3-(2-(3,5-bis(trifluoromethyl)phenyl)pyrimidin-4-yl)-2-(3-fluoro-4-methylphenyl)acrylamide] | > 30 | > 30 | > 30 |
| NC(=O)/C(=C/c1ccnc(-c2cc(C(F)(F)F)cc(C(F)(F)F)c2)n1)c1cccc(S(=O)(=O)N2CC(F)C2)c1 [Compound 145, (E)-3-(2-(3,5-bis(trifluoromethyl)phenyl)pyrimidin-4-yl)-2-(3-((3-fluoroazetidin-1-yl)sulfonyl)phenyl)acrylamide] | > 30 | > 30 | > 30 |
| NC(=O)/C(=C/c1ccnc(-c2cc(C(F)(F)F)cc(C(F)(F)F)c2)n1)c1cccc(S(=O)(=O)N2CCCC2)c1 [Compound 162, (E)-3-(2-(3,5-bis(trifluoromethyl)phenyl)pyrimidin-4-yl)-2-(3-(pyrrolidin-1-ylsulfonyl)phenyl)acrylamide] | > 30 | > 30 | > 30 |
| NC(=O)/C(=C\c1cncc(-c2cc(C(F)(F)F)cc(C(F)(F)F)c2)n1)c1cncnc1 [Compound 104, (Z)-3-(6-(3,5-bis(trifluoromethyl)phenyl)pyrazin-2-yl)-2-(pyrimidin-5-yl)acrylamide] | > 30 | > 30 | > 30 |
| NC(=O)/C(=C/c1ccnc(-c2cc(C(F)(F)F)cc(C(F)(F)F)c2)n1)c1cccc(S(=O)(=O)N2CCC(F)(F)CC2)c1 [Compound 138, (E)-3-(2-(3,5-bis(trifluoromethyl)phenyl)pyrimidin-4-yl)-2-(3-((4,4-difluoropiperidin-1-yl)sulfonyl)phenyl)acrylamide] | – | > 30 | 0.1 to 5 |
| NC(=O)/C(=C/c1ccnc(-c2cc(C(F)(F)F)cc(C(F)(F)F)c2)n1)c1ccc(Cl)c(F)c1 [Compound 133, (E)-3-(2-(3,5-bis(trifluoromethyl)phenyl)pyrimidin-4-yl)-2-(4-chloro-3-fluorophenyl)acrylamide] | – | > 30 | < 0.1 |
| NC(=O)/C(=C/c1ccnc(-c2cc(C(F)(F)F)cc(C(F)(F)F)c2)n1)c1cccc(S(=O)(=O)N2CC(F)(F)C2)c1 [Compound 139, (E)-3-(2-(3,5-bis(trifluoromethyl)phenyl)pyrimidin-4-yl)-2-(3-((3,3-difluoroazetidin-1-yl)sulfonyl)phenyl)acrylamide] | > 30 | – | > 30 |

Now from value to compound, other results behind:

| IC50 (MM1S cells) [µM] | Compound | IC50 (3T3 cells) [µM] | IC50 (Z138 cells) [µM] |
| --- | --- | --- | --- |
| 0.1 to 5 | NC(=O)/C(=C/c1ccnc(-c2cc(C(F)(F)F)cc(C(F)(F)F)c2)n1)c1ccncc1 [Compound 148, (E)-3-(2-(3,5-bis(trifluoromethyl)phenyl)pyrimidin-4-yl)-2-(pyridin-4-yl)acrylamide] | > 30 | 0.1 to 5 |
| 0.1 to 5 | NC(=O)/C(Br)=C/c1cncc(-c2cc(C(F)(F)F)cc(C(F)(F)F)c2)n1 [Compound 103, (Z)-3-(6-(3,5-bis(trifluoromethyl)phenyl)pyrazin-2-yl)-2-bromoacrylamide] | > 30 | 0.1 to 5 |
| 0.1 to 5 | NC(=O)/C(=C/c1ccnc(-c2cc(C(F)(F)F)cc(C(F)(F)F)c2)n1)c1ccc(S(=O)(=O)N2CCC(F)(F)C2)cc1 [Compound 157, (E)-3-(2-(3,5-bis(trifluoromethyl)phenyl)pyrimidin-4-yl)-2-(4-((3,3-difluoropyrrolidin-1-yl)sulfonyl)phenyl)acrylamide] | > 30 | 0.1 to 5 |
| < 0.1 | NC(=O)/C(=C/c1ccnc(-c2cc(C(F)(F)F)cc(C(F)(F)F)c2)n1)c1cncc2ccccc12 [Compound 158, (E)-3-(2-(3,5-bis(trifluoromethyl)phenyl)pyrimidin-4-yl)-2-(isoquinolin-4-yl)acrylamide] | > 30 | < 0.1 |
| 5 to 30 | COC(=O)/C(=C/c1cncc(-c2cc(C(F)(F)F)cc(C(F)(F)F)c2)n1)c1cncnc1 [Compound 116, methyl (E)-3-(6-(3,5-bis(trifluoromethyl)phenyl)pyrazin-2-yl)-2-(pyrimidin-5-yl)acrylate] | > 30 | 5 to 30 |
| < 0.1 | NC(=O)/C(=C/c1ccnc(-c2cc(C(F)(F)F)cc(C(F)(F)F)c2)n1)c1cncc(Cl)c1 [Compound 147, (E)-3-(2-(3,5-bis(trifluoromethyl)phenyl)pyrimidin-4-yl)-2-(5-chloropyridin-3-yl)acrylamide] | > 30 | 0.1 to 5 |
| < 0.1 | N#Cc1ncc(/C(=C\c2ccnc(-c3cc(C(F)(F)F)cc(C(F)(F)F)c3)n2)C(N)=O)cn1 [Compound 125, (E)-3-(2-(3,5-bis(trifluoromethyl)phenyl)pyrimidin-4-yl)-2-(2-cyanopyrimidin-5-yl)acrylamide] | > 30 | < 0.1 |
| 0.1 to 5 | NC(=O)/C(=C/c1ccnc(-c2cc(C(F)(F)F)cc(C(F)(F)F)c2)n1)c1ccc(S(=O)(=O)N2CCOCC2)cc1 [Compound 151, (E)-3-(2-(3,5-bis(trifluoromethyl)phenyl)pyrimidin-4-yl)-2-(4-(morpholinosulfonyl)phenyl)acrylamide] | > 30 | 5 to 30 |
| 0.1 to 5 | N#Cc1ccccc1/C(=C\c1ccnc(-c2cc(C(F)(F)F)cc(C(F)(F)F)c2)n1)C(N)=O [Compound 154, (E)-3-(2-(3,5-bis(trifluoromethyl)phenyl)pyrimidin-4-yl)-2-(2-cyanophenyl)acrylamide] | – | > 30 |
| 0.1 to 5 | NC(=O)/C(=C/c1ccnc(-c2cc(C(F)(F)F)cc(C(F)(F)F)c2)n1)c1cc2ccccc2s1 [Compound 137, (Z)-2-(benzo[b]thiophen-2-yl)-3-(2-(3,5-bis(trifluoromethyl)phenyl)pyrimidin-4-yl)acrylamide] | > 30 | 0.1 to 5 |
| 0.1 to 5 | CCOC(=O)/C(Br)=C/c1cncc(-c2cc(C(F)(F)F)cc(C(F)(F)F)c2)n1 [Compound 102, ethyl (Z)-3-(6-(3,5-bis(trifluoromethyl)phenyl)pyrazin-2-yl)-2-bromoacrylate] | > 30 | 0.1 to 5 |
